Target: T1, β-glucocerebrosidase (GCase) (Homo sapiens, UniProt P04062)
T1 construct: wild-type fibroblast (CRL2076) pellets (˜2.5e6 cells/pellet) were lysed; host or cells: wild-type fibroblasts CRL2076, lysate
T1 sequence (P04062 40-536): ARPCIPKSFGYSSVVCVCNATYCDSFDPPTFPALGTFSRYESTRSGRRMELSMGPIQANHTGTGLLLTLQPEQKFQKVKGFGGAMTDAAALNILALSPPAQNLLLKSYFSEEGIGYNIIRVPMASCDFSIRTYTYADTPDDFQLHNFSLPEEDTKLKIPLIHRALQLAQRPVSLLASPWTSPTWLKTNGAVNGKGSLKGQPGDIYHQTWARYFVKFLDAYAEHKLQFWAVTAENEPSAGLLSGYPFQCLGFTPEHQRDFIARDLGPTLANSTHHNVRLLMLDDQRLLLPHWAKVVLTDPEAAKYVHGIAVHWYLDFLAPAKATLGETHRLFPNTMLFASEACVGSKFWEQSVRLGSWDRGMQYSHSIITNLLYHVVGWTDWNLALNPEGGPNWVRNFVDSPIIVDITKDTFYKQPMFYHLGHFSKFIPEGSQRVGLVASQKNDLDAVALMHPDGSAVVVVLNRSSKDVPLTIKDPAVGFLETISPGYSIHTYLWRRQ
Assay: Selectivity: glucocerebrosidase activity in fibroblast lysate
Format: biochemical
Settings: 10 μM, the highest concentration tested
From the text: Enzymatic activity measurements were done in duplicate.

Compound: CC(=O)NC1CNC(CO)[C@@H](O)C1O (stereo partly shown) [AdDNJ, 2-acetamido-1,2-dideoxynojirimycin]
- inhibition of β-glucocerebrosidase (GCase): did not inhibit

— patent US9675627B2, “Dosing regimens for treating and/or preventing cerebral amyloidoses” (Amicus Therapeutics, Inc., priority 2014, dated 2017)
